Assays:
MDD and panic disorder = experiment: Clinical case: patient with MDD and panic disorder treated orally once daily; assay type: in vivo, human; conditions: each drug given for 2 months before the composition
Source text: A patient had MDD and panic disorder. […] Because azelastine is approved for the treatment of allergic rhinitis and asthma, and the combination composition of azelastine and folic acid had never been expected to be used to treat patients with depression or anxiety, this dramatic clinical outcome which included a fast reduction of symptoms was unexpected. […] This composition with two mechanisms of action of anti-inflammation would provide a new solution for treating psychiatric diseases which are incurable by other options, such traditional SSRIs, NSRIs, benzodiazepines, and the like alone.

[1] = tested on: mild chronic depression and anxiety induced sleep disorder; experiment: Clinical case: patient with mild chronic depression and anxiety induced sleep disorder treated once daily; assay type: in vivo, human; conditions: citalopram and lorazepam together for 3 months before the composition
Description: A patient was diagnosed with mild chronic depression and anxiety induced sleep disorder and was treated with citalopram and lorazepam for 3 months. […] Then they were treated with a composition of folic acid (0.19 mg) and azelastine (2 mg) once daily. […] The inventors believe the hypothesis as explained in Example 1 above is applicable here as well. In this case, the composition of two mechanisms of action provided a new solution for treating their chronic depression and insomnia which could not be treated with other options, such traditional SSRIs, NSRIs, benzodiazepines, and the like alone.

| Structure (SMILES) | clinical improvement on prior treatment (MDD and panic disorder) | improvement of symptoms on prior treatment [1] |
| --- | --- | --- |
| O=C1CC2(CCCC2)CC(=O)N1CCCCN1CCN(c2ncccn2)CC1 [buspirone] | no significant clinical improvement |  |
| CN[C@H]1CC[C@@H](c2ccc(Cl)c(Cl)c2)c2ccccc21 [sertraline] | no significant clinical improvement |  |
| O=C1Nc2ccc(Cl)cc2C(c2ccccc2Cl)=NC1O (stereo not drawn) [lorazepam] |  | never improved to the level of their satisfaction |
